Patent US8895069B2, “Drug delivery system using hyaluronic acid-peptide conjugate micelle” (Postech Academy-Industry Foundation, priority 2011, dated 2014)
Ends that are not written are not given here.

Columns and labels:
[1] = tested on: corneal neovascularization; experiment: Corneal neovascularization, genistein-loaded micelle (Experimental Example 13); type: in vivo, Albino Sprague Dawley male rats; conditions: rat cornea; samples in PBS: Avastin 10 mg/ml, conjugate and micelle 3.2 mg/ml peptide; control group 86%
lung inflammation = experiment: Bronchoalveolar lavage (BAL) cellularity in OVA/LPS asthma model; type: in vivo, BALB/c mice; conditions: intranasal
Protocol: As the laboratory mouse, BALB/c mice (female, 6 week old, 5 per each group) were used. Five groups consisted of a normal control group (PBS-PBS: wherein asthma was not induced and the mice were treated with PBS), a negative control group (OVA/LPS10-OVA: wherein asthma was induced by using OVA and LPS, and the mice were treated with PBS only), a hyaluronic acid test group, an anti-Flt1 peptide (GGNQWFI) (SEQ ID NO: 3) test group, and a test group of the hyaluronic acid-peptide conjugate obtained from Preparation Example 3. The dose of the hyaluronic acid-peptide conjugate was changed between 10 […].
First, in order to make a mouse asthma model, each mouse was sensitized by intranasal administration of 75 μg of ovalbumin (OVA) (Calbiochem, La Jolla, Calif.) and 10 μg of lipopolysaccharide (LPS) (Calbiochem, La Jolla, Calif.) on 0 day, the first day, the second day, and the 7th day. Then, OVA (50 ug/head), hyaluronic acid (500 μg/head), anti-Flt1 peptide (GGNQWFI) (SEQ ID NO: 3) (10, 30, 100, 300, 1000 μg/head), and the hyaluronic acid-peptide conjugate with a low peptide content prepared from Preparation Example 3 ([…], based on the peptide content) were intranasally administered, respectively, after 14 days, 15 days, 21 days, 22 days to challenge. […]

[2] = TEM particle size of micelle; type: physicochemical; conditions: spherical particle, n=30
Protocol: The anti-Flt1 peptide (GGNQWFI) (SEQ ID NO: 3) and the hyaluronic acid-peptide conjugate with a lower peptide content as prepared from Preparation Example 3 were dissolved in 4004, of PBS to have a final peptide concentration of 1.25 mg/mL, respectively. The amount of the anti-Flt1 peptide contained in each solution was measured with a changeable UV transilluminator (DUT-260, Core Bio System, Korea) by using 312 nm of light source. The formation of the hyaluronic acid-peptide micelle in an aqueous solution was confirmed by using a transmission electron microscope (TEM) (Hitachi, Tokyo, Japan). For a TEM analysis, 10 μL of the hyaluronic acid-peptide conjugate solution was dropped onto a 300 mesh copper TEM grid with a carbon film and then was dried. The average particle size was calculated out from the diameters obtained from the images of 30 particles.
For a transmission electron microscope (TEM) (Hitachi, Tokyo, Japan) analysis, 10 μL of the solution of the drug-loaded, hyaluronic acid-peptide conjugate micelle was dropped onto a 300 mesh copper TEM grid with a carbon film and then was dried.

[3] = tested on: vascular hyperpermeability due to diabetic retinopathy; experiment: Vascular hyperpermeability due to diabetic retinopathy, genistein-loaded micelle (Experimental Example 14); type: in vivo, Sprague Dawley (SD) male rats; conditions: normal = 1, negative control 2.54±0.20; Avastin 10 mg/ml; micelle 3.2 mg/ml peptide; four weeks after streptozotocin
Protocol: First, each rat was injected intraperitonially with 60 mg/kg of streptozotocin dissolved in 10 mM citrate buffer at pH 4.5 in order for diabetes to be induced. In three days after the injection of streptozotocin, the rat was determined to develop diabetes when its serum concentration of glucose was at least 300 mg/dL. In a week after the injection of streptozotocin, 10 μL of each sample solution was injected into the vitroeus body.

## HA-GGNQWFI: hyaluronic acid (MW 100 kDa) conjugated with GGNQWFI, 20 peptides per one molecule of HA-TBA (also: conjugated to hyaluronic acid, about 20 peptides per HA)
[1]
  average ratio of the neovascular area: 30%
Lung inflammation; 1000 μg/head
  bronchoalveolar lavage (BAL) cellularity: less than half of the cellularity in the negative control group
Lung inflammation; 10-1000 per head based on peptide content
  bronchoalveolar lavage (BAL) cellularity, dose dependence: sharply decreased and was found to be dose-dependent
[2]
  average diameter by TEM: 234.5±20.6 nm
[3]
  average intensity of the fluorescence of retina relative to normal group (1): 1.58±0.17
